The values that follow come from patent publication US6555134B1, “Synergistic mixtures of garlic and lycopene for preventing LDL oxidation” (Lycored Natural Products Industries Ltd., priority 1998, dated 2003).

Structures are written as SMILES. Read-outs that look alike come from different tables or passages of the source. Marks after values point to notes of the source that are not given here.

One test has as its system LDL. Nature of the test: copper ions-induced LDL oxidation (TBARS, lipids). The class given is biochemical, human. Particulars: Experiment 1; lycopene 5 μg/ml. How it is done:
LDL was separated from human plasma by discontinuous density gradient ultracentrifugation and dialyzed against saline: EDTA (1 mM). Before oxidation LDL was diluted in PBS to 100 ug protein/ml, and dialyzed overnight against PBS at 4° C. LDL was oxidized by a metal ion dependent mechanism, by incubation for 24 hours at 37° C. with 5 uM CuSO4 freshly prepared as well as by determination of the thiobarbituric acid reactive substance (TBARS). Lycopene, as well as tomato oleoresin containing 5% lycopene, were dissolved in tetrahydrofuran (THF), 0.5 mg/ml stock solution for pure lycopene, and 10 mg/ml stock solution for the oleoresin. Garlic powder was extracted with water, dried, and resolubilized in water at a concentration of 0.25 mg of allicin equivalentsml for a stock solution. The synergistic effects of a combination of garlic and lycopene on copper ions-induced LDL oxidation was studied. Details are shown in Table 1, affording the individual components of the Abbott Equation used to calculate synergism as follows: [formula] where A=Percent Control of garlic alone B=Percent Control of Lycopene alone where IF=Actual control in Percent IE=Expected control in Percent Following the method of Experiment 1, the synergistic effect of a combination of garlic and lycopene as in Experiment 1; but using tomato oleoresin was run.

The test system of the next test is blood lymphocytes. Particulars: NO2 radical damage; cited from earlier work.
The subject of another test is Cultured rat hepatocytes. As to conditions: cited from earlier work.
For a further test, the target named is T1, fatty acid synthetase (Rattus norvegicus, UniProt P12785).
T1 construct: Cultured rat hepatocytes; host or cells: primary rat hepatocyte cultures
T1 sequence (P12785 whole entry): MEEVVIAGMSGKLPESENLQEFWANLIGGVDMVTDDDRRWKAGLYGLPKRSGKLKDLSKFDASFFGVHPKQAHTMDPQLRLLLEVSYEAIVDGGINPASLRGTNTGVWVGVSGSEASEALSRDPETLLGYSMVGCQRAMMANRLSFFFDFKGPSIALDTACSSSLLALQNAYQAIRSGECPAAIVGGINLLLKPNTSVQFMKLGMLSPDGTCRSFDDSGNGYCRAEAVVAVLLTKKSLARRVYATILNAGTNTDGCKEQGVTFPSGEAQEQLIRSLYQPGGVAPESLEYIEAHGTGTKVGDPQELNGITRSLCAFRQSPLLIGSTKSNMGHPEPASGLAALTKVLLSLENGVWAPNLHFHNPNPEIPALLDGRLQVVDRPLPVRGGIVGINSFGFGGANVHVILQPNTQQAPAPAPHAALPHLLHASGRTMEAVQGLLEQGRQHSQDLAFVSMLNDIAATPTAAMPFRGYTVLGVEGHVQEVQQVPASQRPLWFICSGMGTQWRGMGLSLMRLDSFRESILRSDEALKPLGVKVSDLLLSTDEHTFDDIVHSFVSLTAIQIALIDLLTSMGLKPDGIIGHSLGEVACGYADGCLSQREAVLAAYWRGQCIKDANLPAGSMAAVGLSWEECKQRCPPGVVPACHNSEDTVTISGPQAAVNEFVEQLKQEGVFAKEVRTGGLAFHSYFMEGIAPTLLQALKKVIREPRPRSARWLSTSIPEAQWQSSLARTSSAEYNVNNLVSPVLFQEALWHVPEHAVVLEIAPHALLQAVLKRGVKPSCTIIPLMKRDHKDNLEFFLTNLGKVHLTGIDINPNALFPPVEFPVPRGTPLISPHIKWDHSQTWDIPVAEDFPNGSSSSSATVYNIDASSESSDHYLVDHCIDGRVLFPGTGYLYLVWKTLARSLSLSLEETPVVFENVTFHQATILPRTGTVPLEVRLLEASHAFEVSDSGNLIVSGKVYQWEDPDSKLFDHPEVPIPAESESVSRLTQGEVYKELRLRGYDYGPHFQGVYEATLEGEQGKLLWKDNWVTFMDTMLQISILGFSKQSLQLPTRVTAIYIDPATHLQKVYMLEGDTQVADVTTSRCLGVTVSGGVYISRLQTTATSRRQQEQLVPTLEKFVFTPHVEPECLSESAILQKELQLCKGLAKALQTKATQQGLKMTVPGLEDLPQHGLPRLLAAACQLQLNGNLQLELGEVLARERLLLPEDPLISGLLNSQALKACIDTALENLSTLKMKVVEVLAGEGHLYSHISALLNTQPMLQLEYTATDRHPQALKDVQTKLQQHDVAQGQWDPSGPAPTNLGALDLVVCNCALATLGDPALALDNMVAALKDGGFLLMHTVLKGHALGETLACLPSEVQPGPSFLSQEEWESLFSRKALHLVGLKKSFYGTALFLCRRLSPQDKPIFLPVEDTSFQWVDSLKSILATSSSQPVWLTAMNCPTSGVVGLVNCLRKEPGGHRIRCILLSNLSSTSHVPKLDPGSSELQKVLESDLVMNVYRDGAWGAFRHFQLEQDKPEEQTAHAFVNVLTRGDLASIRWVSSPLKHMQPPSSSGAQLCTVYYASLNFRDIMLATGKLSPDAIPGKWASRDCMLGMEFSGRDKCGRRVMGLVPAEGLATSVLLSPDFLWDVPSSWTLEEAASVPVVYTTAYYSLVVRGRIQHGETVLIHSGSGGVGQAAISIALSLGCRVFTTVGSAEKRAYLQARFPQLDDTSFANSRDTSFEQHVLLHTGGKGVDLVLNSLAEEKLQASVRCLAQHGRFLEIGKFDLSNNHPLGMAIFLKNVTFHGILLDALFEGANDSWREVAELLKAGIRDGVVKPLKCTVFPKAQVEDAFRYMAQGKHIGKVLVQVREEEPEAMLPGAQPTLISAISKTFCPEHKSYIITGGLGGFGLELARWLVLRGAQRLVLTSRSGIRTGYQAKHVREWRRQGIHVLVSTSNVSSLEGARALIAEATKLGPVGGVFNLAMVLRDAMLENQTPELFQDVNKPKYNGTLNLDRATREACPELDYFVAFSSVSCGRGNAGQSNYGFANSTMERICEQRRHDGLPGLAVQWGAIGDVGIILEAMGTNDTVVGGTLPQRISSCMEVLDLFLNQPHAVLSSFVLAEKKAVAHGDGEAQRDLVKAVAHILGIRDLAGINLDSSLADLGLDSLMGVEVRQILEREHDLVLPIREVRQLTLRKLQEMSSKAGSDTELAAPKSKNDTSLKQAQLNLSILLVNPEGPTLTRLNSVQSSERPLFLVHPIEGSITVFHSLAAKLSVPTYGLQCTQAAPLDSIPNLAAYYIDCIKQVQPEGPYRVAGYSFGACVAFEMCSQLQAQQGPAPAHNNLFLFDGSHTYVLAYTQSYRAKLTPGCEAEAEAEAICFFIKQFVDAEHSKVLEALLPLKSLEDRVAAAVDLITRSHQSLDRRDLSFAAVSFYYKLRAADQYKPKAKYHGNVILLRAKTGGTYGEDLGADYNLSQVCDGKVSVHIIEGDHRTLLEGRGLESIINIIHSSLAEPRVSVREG
Particulars: at very high concentration; cited from earlier work.

Consider `CC(C)=CCC/C(C)=C/C=C/C(C)=C/C=C/C(C)=C/C=C/C=C(C)/C=C/C=C(C)/C=C/C=C(\C)CCC=C(C)C` [Lycopene], for which the “B = Percent Control of Lycopene alone” value with LDL was 18^b Percent. Besides, in the test with blood lymphocytes, the “antioxidant effectiveness relative to β-carotene” value is recorded as “at least twice as effective”. Regarding `CC[C@H](C)C(=O)O[C@H]1CCC=C2C=C[C@H](C)[C@H](CC[C@@H]3C[C@@H](O)CC(=O)O3)[C@H]21` [Mevastatin], the “inhibition of cholesterol biosynthesis” value in the test with Cultured rat hepatocytes (24 h incubation, radiolabeled acetate) is 90%. For `C=CCS[S+]([O-])CC=C` (centres unmarked) [allicin], in the test with Cultured rat hepatocytes (concentration corresponding to its content in the extracts, before or after incubation with alliinase), the “inhibition of cholesterol biosynthesis” value was “does not exert any inhibition”. On fatty acid synthetase, the “inhibition of fatty acid synthetase” value was “inhibited”.
